The text below walks through data of ChEMBL document CHEMBL1141392, “Green tea catechins potentiate triclosan binding to enoyl-ACP reductase from Plasmodium falciparum (PfENR)” (J Med Chem, 2007).

The target of test [1] is T1, Enoyl-acyl-carrier protein reductase (Plasmodium falciparum, UniProt Q965D5).
T1 sequence (Q965D5 whole entry): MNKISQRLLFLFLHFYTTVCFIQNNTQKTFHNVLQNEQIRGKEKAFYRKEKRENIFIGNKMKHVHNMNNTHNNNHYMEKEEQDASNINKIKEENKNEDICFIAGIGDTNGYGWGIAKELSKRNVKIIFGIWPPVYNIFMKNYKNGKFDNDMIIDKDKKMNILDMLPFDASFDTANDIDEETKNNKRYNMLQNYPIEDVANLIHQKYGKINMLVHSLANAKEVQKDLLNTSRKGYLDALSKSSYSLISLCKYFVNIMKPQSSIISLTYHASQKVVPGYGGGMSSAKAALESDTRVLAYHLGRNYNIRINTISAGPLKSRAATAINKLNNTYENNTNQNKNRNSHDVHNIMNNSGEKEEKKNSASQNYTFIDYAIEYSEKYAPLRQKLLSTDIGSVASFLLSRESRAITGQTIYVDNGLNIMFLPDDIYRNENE
Kind of test: Inhibition of Plasmodium falciparum ENR.

Test [2] has as its target T2, Enoyl-[acyl-carrier-protein] reductase [NADH] FabI (Escherichia coli K-12, UniProt P0AEK4).
T2 sequence (P0AEK4 whole entry): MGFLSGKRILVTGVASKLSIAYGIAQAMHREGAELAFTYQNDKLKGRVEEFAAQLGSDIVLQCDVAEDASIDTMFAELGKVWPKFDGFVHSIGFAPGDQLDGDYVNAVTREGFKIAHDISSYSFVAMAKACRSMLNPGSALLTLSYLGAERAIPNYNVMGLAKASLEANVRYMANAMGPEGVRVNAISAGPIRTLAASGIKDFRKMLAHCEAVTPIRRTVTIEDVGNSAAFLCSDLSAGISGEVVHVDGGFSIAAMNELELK
Kind of test: Inhibition of Escherichia coli ENR.

The target in test [3] is T1, Enoyl-acyl-carrier protein reductase. Kind of test: Inhibition of Plasmodium falciparum ENR using NADH substrate.
Test [4] shares this target. Kind of test: Inhibition of Plasmodium falciparum ENR using crotonyl-CoA substrate.
The target is the same in test [5]. In words: Inhibition of Plasmodium falciparum ENR in presence of triclosan.
Test [6] shares this target. Kind of test: Inhibition of Plasmodium falciparum ENR in presence of ECG.
Test [7] has the same target. Kind of test: Inhibition of Plasmodium falciparum ENR by fluorescence quenching in presence of EGCG.
Test [8] has the same target. In words: Inhibition of Plasmodium falciparum ENR by fluorescence quenching in presence of ECG.
The target is the same in test [9]. Kind of test: Inhibition of Plasmodium falciparum ENR by fluorescence quenching in presence of EGC.
Test [10] shares this target. Kind of test: Inhibition of Plasmodium falciparum ENR by fluorescence quenching in presence of quercetin.
For test [11] the target is unchanged. In words: Inhibition of Plasmodium falciparum ENR by fluorescence quenching in presence of butein.
Test [12] has the same target. Kind of test: Inhibition of Plasmodium falciparum ENR in presence of EGC.
For test [13] the target is unchanged. Kind of test: Inhibition of Plasmodium falciparum ENR in presence of EGCG.
Test [14] has the same target. Kind of test: Inhibition of Plasmodium falciparum ENR in presence of EGCG by dilution assay.
Test [15] has the same target. In words: Inhibition of Plasmodium falciparum ENR in presence of EGC by dilution assay.
Test [16] has the same target. In words: Inhibition of Plasmodium falciparum ENR in presence of ECG by dilution assay.
Test [17] shares this target. In words: Inhibition of Plasmodium falciparum ENR in presence of quercetin by dilution assay.
The target is the same in test [18]. Kind of test: Inhibition of Plasmodium falciparum ENR in presence of butein by dilution assay.
The target is the same in test [19]. In words: Inhibition of Plasmodium falciparum ENR in presence of quercetin.
Test [20] has the same target. In words: Inhibition of Plasmodium falciparum ENR in presence of butein.

By IC50 is commonly meant the concentration needed to halve the response being measured. Read a low IC50 as greater potency in that assay. Broadly, the Ki is the dissociation constant of the complex between target and ligand, obtained from inhibition or displacement. With `O=C(/C=C/c1ccc(O)c(O)c1)c1ccc(O)cc1O` [BUTEIN], the IC50 in [1] came to 12500 nM; in [2] it was 30000 nM. The Ki in test [3] is 5500 nM; in test [4] it was 2970 nM; in test [5] it was 14 nM.
In the same order, the values of `O=c1c(O)c(-c2ccc(O)c(O)c2)oc2cc(O)cc(O)c12` [QUERCETIN] are 2500 nM, 20000 nM, 1090 nM, 473 nM and 22 nM.
In the same order, the values of `Oc1cc(O)c2c(c1)O[C@H](c1cc(O)c(O)c(O)c1)[C@H](O)C2` [EPIGALLOCATECHIN] are 7000 nM, more than 100000 nM, 3750 nM, 2000 nM and 17.6 nM.
In the same order, the values of `O=C(O[C@@H]1Cc2c(O)cc(O)cc2O[C@@H]1c1ccc(O)c(O)c1)c1cc(O)c(O)c(O)c1` [EPICATECHIN GALLATE] are 500 nM, 10000 nM, 291 nM, 102 nM and 16 nM.
`O=C(O[C@@H]1Cc2c(O)cc(O)cc2O[C@@H]1c1cc(O)c(O)c(O)c1)c1cc(O)c(O)c(O)c1` [EPIGALOCATECHIN GALLATE]: the IC50 in test [1] came to 250 nM; in test [2], 15000 nM. Further, the values for the Ki in test [3], in test [4] and in test [5] were 186 nM, 79 nM and 8 nM, respectively.
With `Oc1cc(Cl)ccc1Oc1ccc(Cl)cc1Cl` [TRICLOSAN], the Ki in test [6] amounted to 8 nM; in test [7], 7.29 nM; in test [8], 28.3 nM; in [9], 52.7 nM; in test [10] it was 30.5 nM; in test [11], 71 nM. Further, the Ki came out at 8.25 nM in test [12]; 1 nM in test [13]; 0.0019 nM in [14]; 0.109 nM in [15]; 0.0521 nM in [16]; 0.281 nM in test [17]. The Ki in test [18] is 0.798 nM; in test [19] it was 10 nM; in test [20] it was 13.7 nM.
